Measurements as given in patent US9090610B2, “Fluoroalkyl-substituted pyrazolopyridines and use thereof” (BAYER INTELLECTUAL PROPERTY GMBH, priority 2011, dated 2015).

Experiments:
[1] = test system: recombinant guanylate cyclase reporter cell line; experiment: Effect on a recombinant guanylate cyclase reporter cell line; assay type: cell-based; settings: recombinant guanylate cyclase reporter cell line (Wunder et al. 2005); read-out: MEC (minimum effective concentration)
Method: B-2. Effect on a Recombinant Guanylate Cyclase Reporter Cell Line
The cellular activity of the compounds according to the invention is determined using a recombinant guanylate cyclase reporter cell line, as described in F. Wunder et al., Anal. Biochem. 339, 104-112 (2005).

[2] = test system: rabbit aorta rings; experiment: Vasorelaxant action in vitro (phenylephrine-contracted rabbit aortic rings); settings: Oryctolagus cuniculus, phenylephrine-induced contraction, organ bath 37° C., 0.1% DMSO, read-out: IC50 (concentration needed to reduce the magnitude of the control contraction by 50%)
Method: B-1. Vasorelaxant Action In Vitro
Rabbits are stunned by a blow to the neck and exsanguinated. The aorta is removed, freed from adhering tissue and divided into rings of a width of 1.5 mm. The rings are placed individually under an initial tension in 5 ml organ baths with Krebs-Henseleit solution which is at 37° C., is gassed with carbogen and has the following composition (in each case mM): sodium chloride: 119; potassium chloride: 4.8; calcium chloride dihydrate: 1; magnesium sulfate heptahydrate: 1.4; potassium dihydrogenphosphate: 1.2; sodium bicarbonate: 25; glucose: 10. The contractile force is determined with Statham UC2 cells, amplified and digitalized using A/D transducers (DAS-1802 HC, Keithley Instruments Munich), and recorded in parallel on linear recorders. To obtain a contraction, phenylephrine is added to the bath cumulatively in increasing concentration. After several control cycles, the substance to be investigated is added in each further run in increasing dosage in each case, and the height of the contraction achieved is compared with the height of the contraction reached in the last preceding run. This is used to calculate the concentration needed to reduce the magnitude of the control value by 50% ([…]). The standard administration volume is 5 μl; the DMSO content in the bath solution corresponds to 0.1%.

Row | Compound | IC50 [2] | minimal effective concentration [1]
1 | CC1(C)C(=O)Nc2nc(-c3nn(CCC(F)(F)C(F)F)c4ncc(F)cc34)nnc21 [Example 7, 3-[5-Fluoro-1-(3,3,4,4-tetrafluorobutyl)-1H-pyrazolo[3,4-b]pyridin-3-yl]-7,7-dimethyl-5,7-dihydro-6H-pyrrolo[2,3-e][1,2,4]triazin-6-one] |  | 0.3 µM
2 | CC1(C)C(=O)Nc2nc(-c3nn(CCC(F)(F)C(F)(F)F)c4ncc(F)cc34)nnc21 [Example 2, 3-[5-Fluoro-1-(3,3,4,4,4-pentafluorobutyl)-1H-pyrazolo[3,4-b]pyridin-3-yl]-7,7-dimethyl-5,7-dihydro-6H-pyrrolo[2,3-e][1,2,4]triazin-6-one] | 129 nM | 0.1 µM
3 | CC1(C)C(=O)Nc2nc(-c3nn(CC4CC(F)(F)C4)c4ncc(F)cc34)nnc21 [Example 8, 3-{1-[(3,3-Difluorocyclobutyl)methyl]-5-fluoro-1H-pyrazolo[3,4-b]pyridin-3-yl}-7,7-dimethyl-5,7-dihydro-6H-pyrrolo[2,3-e][1,2,4]triazin-6-one] |  | 3 µM
4 | CC1(C)C(=O)Nc2nc(-c3nn(CCC(F)(F)C(F)(F)F)c4ncc(F)cc34)ncc21 [Example 4, 2-[5-Fluoro-1-(3,3,4,4,4-pentafluorobutyl)-1H-pyrazolo[3,4-b]pyridin-3-yl]-5,5-dimethyl-5,7-dihydro-6H-pyrrolo[2,3-d]pyrimidin-6-one] | 101 nM | 0.03 µM
5 | CC1(C)C(=O)Nc2nc(-c3nn(CCC(F)(F)C(F)(F)F)c4ncccc34)ncc21 [Example 3, 5,5-Dimethyl-2-[1-(3,3,4,4,4-pentafluorobutyl)-1H-pyrazolo[3,4-b]pyridin-3-yl]-5,7-dihydro-6H-pyrrolo[2,3-d]pyrimidin-6-one] | 46 nM | 0.03 µM
6 | CC1(C)C(=O)Nc2nc(-c3nn(CC4CCCC4)c4ncc(F)cc34)nnc21 [Example 6, 3-[1-(Cyclopentylmethyl)-5-fluoro-1H-pyrazolo[3,4-b]pyridin-3-yl]-7,7-dimethyl-5,7-dihydro-6H-pyrrolo[2,3-e][1,2,4]triazin-6-one] | 102 nM | 0.1 µM

More lines, in order of falling IC50 [2], values ahead:

Row | IC50 [2] | Compound | minimal effective concentration [1]
7 | 263 nM | CC1(C)C(=O)Nc2nc(-c3nn(CCC(F)(F)C(F)(F)F)c4ncccc34)nnc21 [Example 1, 7,7-Dimethyl-3-[1-(3,3,4,4,4-pentafluorobutyl)-1H-pyrazolo[3,4-b]pyridin-3-yl]-5,7-dihydro-6H-pyrrolo[2,3-e][1,2,4]triazin-6-one] | 0.3 µM
8 | 23 nM | CC1(C)C(=O)Nc2nc(-c3nn(CC4CCCC4)c4ncc(F)cc34)ncc21 [Example 5, 2-[1-(Cyclopentylmethyl)-5-fluoro-1H-pyrazolo[3,4-b]pyridin-3-yl]-5,5-dimethyl-5,7-dihydro-6H-pyrrolo[2,3-d]pyrimidin-6-one] | 0.1 µM
